Measured values published in article PMC10218498, “Exploring BenzylethoxyAryl Urea Scaffolds for Multitarget Immunomodulation Therapies” (International Journal of Molecular Sciences, 2023).

How the values were obtained:
[1] = system: HT-29 (colon adenocarcinoma); experiment: MTT cell proliferation assay, HT-29; assay type: cell-based, human; conditions: for IC50: Homo sapiens, HT-29, 48 h of treatment, read-out: IC50 HT-29; for IC50 / effect on cancer cell proliferation (HT-29), in words: MTT
Protocol: (§1) The 3-(4,5-dimethylthiazol-2-yl)-2,5-diphenyltetrazolium bromide (MTT; Sigma Chemical Co.) dye reduction assay in 96-well microplates was used. […] After that, the supernatant was discarded and replaced by 100 µL of DMSO to dissolve formazan crystals. The absorbance was then read at 550 nm by spectrophotometry. For all concentrations of compound, cell viability was expressed as the percentage of the ratio between the mean absorbance of treated cells and the mean absorbance of untreated cells. Three independent experiments were performed, and the IC50 values (i.e., concentration half inhibiting cell proliferation) were graphically determined using GraphPad Prism 4 software.

[2] = system: A-549 (pulmonary adenocarcinoma); experiment: MTT cell proliferation assay, A-549; assay type: cell-based, human; conditions: for IC50: Homo sapiens, A549, 48 h of treatment, read-out: IC50 A-549; for IC50 / effect on cancer cell proliferation (A-549), in words: MTT
Protocol: as §1

[3] = system: HEK-293 (human embryonic kidney cells); experiment: MTT cell proliferation assay, HEK-293; assay type: cell-based; conditions: HEK293, 48 h of treatment
Protocol: (§2) This assay allowed us to establish the corresponding IC50 values (expressed as the concentration, in μM, at which 50% of cell viability is achieved), shown in Table 1.
(§3) In 96-well plates, 5 × 10^3 (HT-29, MCF-7, A549, HMEC-1, Jurkat, and HEK-293) cells per well were incubated with serial dilutions of the tested compounds in a total volume of 100 μL of their respective growth media. The 3-(4,5-dimethylthiazol-2-yl)-2,5-diphenyltetrazolium bromide (MTT; Sigma Chemical Co.) dye reduction assay in 96-well microplates was used. After 2 days of incubation (37 °C, 5% CO2 in a humid atmosphere), 10 μL of MTT (5 mg/mL in phosphate-buffered saline, PBS) was added to each well, and the plate was incubated for a further 3 h (37 °C). After that, the supernatant was discarded and replaced by 100 µL of DMSO to dissolve formazan crystals. The absorbance was then read at 550 nm by spectrophotometry. For all concentrations of compound, cell viability was expressed as the percentage of the ratio between the mean absorbance of treated cells and the mean absorbance of untreated cells. Three independent experiments were performed, and the IC50 values (i.e., concentration half inhibiting cell proliferation) were graphically determined using GraphPad Prism 4 software.

Jurkat T cells = experiment: MTT cell proliferation assay, Jurkat T cells; assay type: cell-based; conditions: Homo sapiens, 48 h of treatment
Protocol: as §2, §3

[4] = system: human microvessel endothelial cells (HMEC-1); experiment: MTT cell proliferation assay, HMEC-1; assay type: cell-based; conditions: 48 h of treatment
Protocol: as §2, §3

LCK = experiment: Immunoblotting of OT-1 CTL signaling proteins: LCK; assay type: cell-based, mice; conditions: OT-1, 20 μM, 24 h
Description: (§4) We next studied the effect of our compounds on the signaling cascade downstream of the TCR. […] However, both the expression and phosphorylation of LCK were increased in response to all compounds. The effects on ZAP70 and LAT were more complex, with opposing effects on total protein expression versus phosphorylation. Thus, all compounds modulated signaling downstream of the TCR in a manner that is likely to impact T-cell activation and activity.
(§5) CD8+ cells were obtained from the inguinal, axillary, brachial, and mesenteric lymph nodes previously collected from OT-1 mice. Lymph node cells were isolated by mashing through a […] cell strainer. Cells were resuspended in IMDM cell media at a concentration of 0.3 million cells/mL. N4 ovalbumin peptide was added at a concentration of 10 nM, and cells were incubated for 48 h at 5% CO2, 37 °C. On day 2 from recollection, cells were pelleted at 1300 rpm for 5 min and washed with PBS to remove N4 peptide. The cell pellet was resuspended in fresh IMDM media in a new flask in a 0.3 million cells/mL and supplemented with IL-2 at 20 ng/mL. After incubation for a further 48 h (day 4), cells were re-seeded in fresh IMDM media at a concentration of 0.3 million cells/mL supplemented with IL-2 at 20 ng/mL. Cells were cultured for a further 48 h prior to use on day 6 in functional assays.
(§6) To study the effect of the compounds in the signaling pathway of CTLs, the compound was incubated for 24 h at 20 μM. After this time, cells were collected and washed twice in PBS and lysed in radioimmunoprecipitation assay (RIPA) lysis buffer (50 mM tris-HCl at pH 7.4, 150 mM sodium chloride, 5 mM EGTA, 0.1% SDS, 1% NP-40, and 1% deoxycholate) supplemented with a protease and phosphatase inhibitor cocktail (mini complete ULTRA Protease tablet and phosSTOP tablet from Roche, Basel, Switzerland). Lysates were clarified by high-speed centrifugation (17,000 rpm for 15 min at 4 °C). Protein concentration was measured using a Micro BCA Protein Assay (Thermo Scientific, Waltham, MA, USA), and 10 μg to 30 μg of total protein were supplemented with 2X SDS sample buffer [tris (pH 6.8), 20% glycerol, 5% SDS, b-mercaptoethanol, and bromophenol blue) and boiled at 95 °C for 5 min. […] Bound Ab was detected by incubation with anti-rabbit and anti-mouse horseradish peroxidase secondary Ab (Cell Signaling Technology) and visualized using the Bio-Rad ChemiDoc MP Imaging System.

Fyn = experiment: Immunoblotting of OT-1 CTL signaling proteins: FYN; assay type: cell-based, mice; conditions: OT-1, 20 μM, 24 h
Description: as §4, §5, §6

[5] = system: HMEC-1 microtube formation; experiment: Tube formation inhibition assay on Matrigel; assay type: cell-based, human; conditions: HMEC-1 on Matrigel, 24 h
Protocol: The capacity to inhibit the formation of a new vasculature network formed by HMEC-1 was evaluated on compounds 8 and 14 at different concentrations.
Wells of an IBIDI μ-slide angiogenesis (IBIDI, Martinsried, Germany) were coated with 15 μL of Matrigel® (10 mg/mL, BD Biosciences) at 4 °C. After gelatinization at 37 °C for 30 min, HMEC-1 cells were seeded at 2 × 10^4 cells/well in 25 μL of culture medium on top of the Matrigel and were incubated 30 min at 37 °C while are attached. Then, compounds were added and dissolved in 25 μL of culture medium, and after 24 h of incubation at 37 °C, tube formation was evaluated.

PD-L1 [6] = target: T1, PD-L1 (Homo sapiens, UniProt Q9NZQ7); experiment: PD-L1 relative quantification by flow cytometry in MCF-7; assay type: cell-based; parameters: endogenous in cells; host or cells: MCF-7; conditions: MCF-7, 20 µM, 24 h, control = 100
Protocol: In view of the good results obtained for these selected compounds, we decided to extend the study to a third cancer cell line, MCF-7 (Human breast cancer adenocarcinoma). First, we determined the IC50 values of the derivatives and their SI indexes (see Table 4). Then, we determined the effect of the selected compounds on the biological targets, PD-L1 and VEGFR-2, by flow cytometry. […] As usually, the assay was performed at a concentration of 20 µM for 24 h.
(§7) To study the effect of the compounds on every biological target in cancer cell lines, the compounds were used at 20 µM dose.
(§8) For the assay, 10^5 cells per well were incubated for 24 h with the corresponding dose of the tested compound in a total volume of 500 μL of their growth media.
(§9) On the one hand, to detect total PD-L1 and VEGFR-2, after the cell treatments, they were collected and fixed with 4% in PBS paraformaldehyde. After fixation, a treatment with 0.5% in PBS TritonTM X-100 was performed, and finally, cells were stained with FITC Mouse monoclonal Anti-Human VEGFR-2 (ab184903) and Alexa Fluor® 647 Rabbit monoclonal Anti-PD-L1 (ab215251).
(§10) On the other hand, to detect membrane PD-L1 and VEGFR-2, the process was the same, avoiding the treatment with 0.5% in PBS TritonTM X-100 step.

[7] = system: MCF-7 (Human breast cancer adenocarcinoma); experiment: MTT cell proliferation assay, MCF-7; assay type: cell-based; conditions: Homo sapiens, MCF7; MTT; read-out: IC50 (μM) MCF-7
Protocol: as §1

PD-L1 [8] = target: T1, PD-L1; experiment: PD-L1 relative quantification by flow cytometry in HT-29; assay type: cell-based; parameters: endogenous in cells; host or cells: HT-29; conditions: HT-29, 20 µM, 24 h, relative to DMSO control = 100
Protocol: (§11) To assess the effect of the selected compounds on the biological targets PD-L1 and VEFGR-2, we performed the study on both cancer cell lines HT-29 and A-549 and by flow cytometry technique. […] For these assays, cells were incubated for 24 h in the presence of the corresponding compounds at 20 µM concentration.
as §7, §8, §9, §10

PD-L1 [9] = target: T1, PD-L1; experiment: PD-L1 relative quantification by flow cytometry in A-549; assay type: cell-based; parameters: endogenous in cells; host or cells: A-549; conditions: A-549, 20 µM, 24 h, relative to DMSO control = 100
Protocol: as §11, §7, §8, §9, §10

T1 sequence (Q9NZQ7 19-290): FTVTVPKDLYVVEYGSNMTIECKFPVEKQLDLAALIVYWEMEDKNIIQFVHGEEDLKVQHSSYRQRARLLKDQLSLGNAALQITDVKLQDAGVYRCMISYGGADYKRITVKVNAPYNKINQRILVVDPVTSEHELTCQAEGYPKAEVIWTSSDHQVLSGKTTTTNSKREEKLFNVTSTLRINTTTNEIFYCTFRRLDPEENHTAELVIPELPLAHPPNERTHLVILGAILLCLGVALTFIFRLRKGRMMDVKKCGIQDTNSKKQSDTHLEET

| Compound | IC50 [1] [µM] | IC50 [2] [µM] | IC50 (Jurkat T cells) [µM] | melting point [°C] | IC50 [3] [µM] | IC50 [4] [µM] | effect on cancer cell proliferation (HT-29), in words [1] | effect on cancer cell proliferation (A-549), in words [2] | also measured |
| --- | --- | --- | --- | --- | --- | --- | --- | --- | --- |
| COc1ccc(COc2cccc(NC(=O)Nc3ccccc3)c2)cc1 [Compound 1] | 21 ± 10 | 6 ± 3 | > 100 | – | 1.4 ± 0.2 | > 100 | – | – | – |
| COc1ccc(COc2cccc(NC(=O)Nc3cccc(F)c3)c2)cc1 [Compound 3] | > 100 | > 100 | > 100 | 202 to 203 | 3.7 ± 0.8 | > 100 | no effect | no effect | – |
| COc1ccc(COc2cccc(NC(=O)Nc3ccccc3F)c2)cc1 [Compound 4] | > 100 | > 100 | > 100 | 185 to 186 | 16 ± 4 | > 100 | no effect | no effect | – |
| COc1ccc(COc2cccc(NC(=O)Nc3ccc(Cl)cc3)c2)cc1 [Compound 5] | 12 ± 4 | 15 ± 2 | > 100 | – | > 100 | > 100 | – | – | SI (HT-29) (IC50HEK293/IC50HT-29) ([1]; selectivity index): >8; SI (A-549) (IC50HEK293/A-549) ([2]; selectivity index): >7 |
| COc1ccc(COc2cccc(NC(=O)Nc3cccc(Cl)c3)c2)cc1 [Compound 6] | 38 ± 15 | > 100 | > 100 | – | 3.3 ± 0.5 | > 100 | only active in HT-29 | – | – |
| COc1ccc(COc2cccc(NC(=O)Nc3ccccc3Cl)c2)cc1 [Compound 7] | 50 ± 4 | 48 ± 3 | > 100 | 183.4 | 27 ± 9 | > 100 | – | – | – |
| COc1ccc(COc2cccc(NC(=O)Nc3cccc(Br)c3)c2)cc1 [Compound 9] | 25 ± 2 | 3.9 ± 0.4 | > 100 | 198.5 | 0.7 ± 0.3 | > 100 | – | – | LCK protein expression (Western blot quantification) (LCK): 180; pY394-LCK protein expression (Western blot quantification) (LCK): 175; pY505-LCK protein expression (Western blot quantification) (LCK): 154; FYN protein expression (Western blot quantification) (Fyn): 108 |
| CCN(CC)CCNC(=O)c1c(C)[nH]c(/C=C2\C(=O)Nc3ccc(F)cc32)c1C [Sunitinib, sunitinib, reference compound] | – | – | – | – | – | – | – | – | Minimum Active Conc. (inhibition of microtube formation) [5]: 3 µM |

Now from value to compound, other results behind:

| IC50 [1] [µM] | IC50 [2] [µM] | IC50 (Jurkat T cells) [µM] | melting point [°C] | Compound | IC50 [3] [µM] | IC50 [4] [µM] | effect on cancer cell proliferation (HT-29), in words [1] | effect on cancer cell proliferation (A-549), in words [2] | also measured |
| --- | --- | --- | --- | --- | --- | --- | --- | --- | --- |
| 41 ± 5 | 25 ± 1 | > 100 | 198.5 | COc1ccc(COc2cccc(NC(=O)Nc3ccccc3Br)c2)cc1 [Compound 10] | 8.7 ± 0.7 | > 100 | – | – | – |
| > 100 | > 100 | > 100 | 137.5 to 168.9 | COc1ccc(COc2cccc(NC(=O)Nc3cccc(OC)c3)c2)cc1 [Compound 12] | 12 ± 1 | > 100 | no effect | no effect | – |
| > 100 | > 100 | > 100 | 160 to 161.6 | COc1ccc(COc2cccc(NC(=O)Nc3ccccc3OC)c2)cc1 [Compound 13] | > 100 | > 100 | no effect | no effect | – |
| 17 ± 4 | 27 ± 2 | – | – | CNC(=O)c1cc(Oc2ccc(NC(=O)Nc3ccc(Cl)c(C(F)(F)F)c3)cc2)ccn1 [Sorafenib, sorafenib, reference compound] | 5 ± 0.7 | 34 ± 3 | – | – | Minimum Active Conc. (inhibition of microtube formation) [5]: 10 µM; % PD-L1 Memb. (PD-L1 [6]): 89 ± 2%; % PD-L1 Total (PD-L1 [6]): 80 ± 13%; IC50 [7]: 14 ± 4 µM; Total PD-L1 (%) (PD-L1 [8]): 96 ± 49%; Total PD-L1 (%) (PD-L1 [9]): 102 ± 10% |
